From ChEMBL document CHEMBL5154721, “Discovery of HDAC6-Selective Inhibitor NN-390 with in Vitro Efficacy in Group 3 Medulloblastoma” (J Med Chem, 2022)
Calls of active or inactive are those of the source. The rule behind the calls is not given here.

Tests used:
[1] = biological target: T1, Protein deacetylase HDAC6 (Homo sapiens, UniProt Q9UBN7); assay: Inhibition of full length human recombinant HDAC6 expressed in Sf9 baculovirus system using FAM-labeled acetylated peptide as substrate by measuring fluorescence intensity by EMSA method
T1 sequence (Q9UBN7 whole entry): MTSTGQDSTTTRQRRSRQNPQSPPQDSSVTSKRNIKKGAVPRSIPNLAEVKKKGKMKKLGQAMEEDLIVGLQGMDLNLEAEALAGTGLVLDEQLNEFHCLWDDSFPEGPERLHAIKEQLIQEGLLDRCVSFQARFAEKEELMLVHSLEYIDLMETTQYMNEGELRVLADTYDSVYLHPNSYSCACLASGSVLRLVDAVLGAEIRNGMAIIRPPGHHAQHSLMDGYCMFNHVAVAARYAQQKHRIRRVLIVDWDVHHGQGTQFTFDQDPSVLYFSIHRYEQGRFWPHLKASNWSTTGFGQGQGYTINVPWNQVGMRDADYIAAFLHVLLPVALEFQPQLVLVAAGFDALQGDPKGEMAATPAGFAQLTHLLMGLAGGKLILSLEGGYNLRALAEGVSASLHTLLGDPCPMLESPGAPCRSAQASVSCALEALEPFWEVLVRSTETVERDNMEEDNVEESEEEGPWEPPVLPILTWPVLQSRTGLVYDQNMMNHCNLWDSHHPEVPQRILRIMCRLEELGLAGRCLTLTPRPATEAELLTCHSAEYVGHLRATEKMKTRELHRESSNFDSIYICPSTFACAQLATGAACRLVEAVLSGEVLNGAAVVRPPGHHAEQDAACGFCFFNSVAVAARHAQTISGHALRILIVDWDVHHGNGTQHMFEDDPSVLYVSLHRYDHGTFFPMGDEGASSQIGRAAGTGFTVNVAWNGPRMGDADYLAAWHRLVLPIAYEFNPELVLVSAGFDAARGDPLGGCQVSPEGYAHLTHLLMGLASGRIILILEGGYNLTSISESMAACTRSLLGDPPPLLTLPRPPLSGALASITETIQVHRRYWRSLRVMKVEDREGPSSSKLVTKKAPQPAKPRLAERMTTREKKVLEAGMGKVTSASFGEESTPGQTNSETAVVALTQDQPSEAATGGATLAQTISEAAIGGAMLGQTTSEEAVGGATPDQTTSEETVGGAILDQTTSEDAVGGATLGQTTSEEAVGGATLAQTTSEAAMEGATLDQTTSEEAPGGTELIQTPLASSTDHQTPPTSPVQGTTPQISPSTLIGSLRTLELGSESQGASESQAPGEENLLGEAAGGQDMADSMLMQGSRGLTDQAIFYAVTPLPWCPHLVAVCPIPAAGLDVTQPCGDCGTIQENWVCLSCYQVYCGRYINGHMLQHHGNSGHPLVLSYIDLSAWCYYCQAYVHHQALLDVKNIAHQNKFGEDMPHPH

[2] = biological target: T2, Histone deacetylase 11 (Homo sapiens, UniProt Q96DB2); assay: Inhibition of full length human recombinant HDAC11 expressed in Sf9 baculovirus system using FAM-labeled acetylated peptide as substrate by measuring fluorescence intensity by EMSA method
T2 sequence (Q96DB2 whole entry): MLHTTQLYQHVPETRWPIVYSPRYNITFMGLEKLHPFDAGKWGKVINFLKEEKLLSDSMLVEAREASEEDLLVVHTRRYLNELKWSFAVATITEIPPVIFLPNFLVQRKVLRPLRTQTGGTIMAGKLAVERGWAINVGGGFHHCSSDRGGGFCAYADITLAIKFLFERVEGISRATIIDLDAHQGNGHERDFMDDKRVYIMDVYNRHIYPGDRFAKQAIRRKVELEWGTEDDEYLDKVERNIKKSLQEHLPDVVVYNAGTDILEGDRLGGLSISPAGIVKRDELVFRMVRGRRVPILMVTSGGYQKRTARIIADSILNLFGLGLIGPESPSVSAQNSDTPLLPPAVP

[3] = biological target: T3, Histone deacetylase 8 (Homo sapiens, UniProt Q9BY41); assay: Inhibition of full length human recombinant HDAC8 expressed in Sf9 baculovirus system using FAM-labeled acetylated peptide as substrate by measuring fluorescence intensity by EMSA method
T3 sequence (Q9BY41 whole entry): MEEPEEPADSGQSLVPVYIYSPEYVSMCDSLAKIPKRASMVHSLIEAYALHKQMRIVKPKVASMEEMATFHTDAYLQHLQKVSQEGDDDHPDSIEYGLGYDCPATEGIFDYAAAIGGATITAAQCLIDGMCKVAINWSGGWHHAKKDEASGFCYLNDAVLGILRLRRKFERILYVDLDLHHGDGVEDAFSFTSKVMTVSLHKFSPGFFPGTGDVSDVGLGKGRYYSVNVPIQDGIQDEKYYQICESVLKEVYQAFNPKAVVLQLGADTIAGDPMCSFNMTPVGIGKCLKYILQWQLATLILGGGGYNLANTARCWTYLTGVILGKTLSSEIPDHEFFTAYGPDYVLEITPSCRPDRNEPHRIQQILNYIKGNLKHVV

[4] = Competitive inhibition of N-terminal His-SUMO tagged zebra fish recombinant HDAC6 catalytic domain 2 transfected with pET28b(+) vector in Escherichia coli BL21 (DE3) RILP cells incubated for 10 mins followed by addition of FITC-M344 measured af ter 10 mins by fluorescence polarization assay; set-up: species or system Danio rerio
[5] = tested on: MM1.S; assay: Cytotoxicity against human MM1.S cells assessed as inhibition of cell growth incubated for 72 hrs measured by spectrophotometer analysis; assay type: functional, cell-based
[6] = biological target: Histone deacetylase 3 (Homo sapiens, UniProt O15379); assay: Inhibition of full length human recombinant HDAC3 expressed in Sf9 baculovirus system using FAM-labeled acetylated peptide as substrate by measuring fluorescence intensity by EMSA method
[7] = tested on: MV4-11; assay: cells; assay type: functional, cell-based; conditions: Homo sapiens, MV4-11, 72 h
[8] = in vitro; conditions: human, MRC9 cells
[9] = Stability in human plasma assessed as half life measured upto 60 mins by LC-MS/MS analysis; assay type: ADME, cell-free
[10] = Cytotoxicity against human fetal neuronal stem cells assessed as inhibition of cell growth incubated for 72 hrs measured by spectrophotometer analysis; assay type: toxicity, cell-based, NSC
[11] = AUCinfinity in CD-1 mouse at 20 mg/kg, ip; assay type: ADME, organism-based; set-up: time infinity, dose 20 mg/kg, route ip; conditions: in vivo
[12] = AUC/D in CD-1 mouse at 20 mg/kg, ip; assay type: ADME, organism-based; conditions: in vivo
[13] = Lipophilicity, logP of the compound; assay type: physicochemical; conditions: octanol/water
[14] = Half life in CD-1 mouse at 20 mg/kg, ip; assay type: ADME, organism-based; conditions: in vivo
[15] = AUClast in CD-1 mouse at 20 mg/kg, ip; assay type: ADME, organism-based; set-up: time 0 - last, dose 20 mg/kg, route ip; conditions: in vivo
[16] = Cmax in CD-1 mouse at 20 mg/kg, ip; assay type: ADME, organism-based; set-up: dose 20 mg/kg, route ip; conditions: in vivo
[17] = Cytotoxicity against human HD-MB03 cells assessed as inhibition of cell growth incubated for 72 hrs measured by spectrophotometer analysis; assay type: functional, cell-based; conditions: HD-MB03, 72 h
[18] = Cytotoxicity against primary normal human fibroblast cells assessed as inhibition of cell growth incubated for 72 hrs measured by spectrophotometer analysis; assay type: toxicity, cell-based
[19] = tested on: MV4-11; assay: Increase in acetylation of histone H3 in human MV4-11 cells at 0.1 uM after 6 hrs by Western blot analysis; assay type: functional, cell-based
[20] = Cytotoxicity against HUVEC cells assessed as inhibition of cell growth incubated for 72 hrs measured by spectrophotometer analysis; assay type: toxicity, cell-based; conditions: human
[21] = tested on: HD-MB03; assay: […] of self renewal of BTIC-enriched human HD-MB03 cells at 964 nM incubated for 72 hrs by sphere formation assay; assay type: functional, cell-based
[22] = tested on: MV4-11; assay: Induction of apoptosis in human MV4-11 cells assessed as late apoptotic cells at 2 uM after 18 hrs by Annexin V/PI staining based flow cytometric analysis; assay type: functional
[23] = tested on: MV4-11; assay: Induction of apoptosis in human MV4-11 cells assessed as late apoptotic cells at 0.25 uM after 24 hrs by Annexin V/PI staining based flow cytometric analysis (Rvb=8.13%); assay type: functional
[24] = tested on: HD-MB03; assay: Increase in acetylation of histone H3 in human HD-MB03 cells at 211 nM for 6 hrs by Western blotting anlaysis; assay type: functional, cell-based
[25] = Therapeutic window, ratio of IC50 for human fetal neuronal stem cells to IC50 for human HD-MB03 cells; assay type: ADME; conditions: fetal neuronal stem cells versus HD-MB03 cells, read-out: Ratio IC50

Histone deacetylase 3, sequence (O15379 whole entry): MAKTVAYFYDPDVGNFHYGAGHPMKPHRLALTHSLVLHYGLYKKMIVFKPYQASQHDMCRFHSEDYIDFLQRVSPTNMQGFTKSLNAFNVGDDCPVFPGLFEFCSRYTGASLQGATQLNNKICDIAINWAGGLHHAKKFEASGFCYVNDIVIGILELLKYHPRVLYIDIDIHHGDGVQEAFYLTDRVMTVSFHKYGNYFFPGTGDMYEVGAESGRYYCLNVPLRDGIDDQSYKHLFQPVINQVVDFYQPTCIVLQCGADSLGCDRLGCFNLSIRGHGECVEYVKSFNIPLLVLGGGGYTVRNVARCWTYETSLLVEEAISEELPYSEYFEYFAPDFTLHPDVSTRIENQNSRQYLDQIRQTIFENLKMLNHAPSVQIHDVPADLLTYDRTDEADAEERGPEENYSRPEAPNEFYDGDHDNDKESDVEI

| SMILES | IC50 [1] [nM] | IC50 [2] [nM] | IC50 [3] [nM] | IC50 [6] [nM] | IC50 [7] [nM] | IC50 at 72 h [8] [nM] | IC50 [4] [nM] | IC50 [5] [nM] | further results |
| --- | --- | --- | --- | --- | --- | --- | --- | --- | --- |
| CC(C)N(Cc1ccc(C(=O)NO)cn1)S(=O)(=O)c1cc(F)c(F)c(F)c1F | 121 | > 1000 | > 1000 | > 1000 | 1000 | > 50000 | 1130 | 1600 |  |
| CC(C)CN(Cc1ccc(C(=O)NO)cc1)S(=O)(=O)c1cc(F)c(F)c(F)c1F | 24.6 | > 1000 | > 1000 | > 1000 | 520 | > 50000 | 137 | 690 |  |
| CC(C)N(Cc1ccc(C(=O)NO)cc1)C(=O)c1c(F)c(F)c(F)c(F)c1F |  |  |  |  |  | > 50000 |  | 12300 |  |
| CCCCN(Cc1ccc(C(=O)NO)cc1)C(=O)Nc1ccccc1 [NEXTURASTAT A] |  |  |  |  |  | > 20000 |  | 1760 | half-life [14]: 114 min; AUC(0-t) [15]: 2520 ng·h/mL; Cmax [16]: 750 ng/mL; AUC(0-inf) [11]: 2550 ng·h/mL; AUC/dose [12]: 126 ng·h/mL |
| O=C(CCCCCCNC(=O)c1cnc(N(c2ccccc2)c2ccccc2)nc1)NO [RICOLINOSTAT] |  |  |  |  |  | > 20000 | 90.2 | 840 | IC50 [17]: 5220 nM |
| O=C(CCCCCCC(=O)Nc1ccccc1)NO [VORINOSTAT] |  |  |  |  |  |  |  | 1540 |  |
| COCCN(Cc1ccc(C(=O)NO)cc1)S(=O)(=O)c1cc(F)c(F)c(F)c1F | 27.8 | > 1000 | > 1000 | > 1000 | 660 | > 25000 |  | 710 |  |
| O=C(/C=C/c1cccc(S(=O)(=O)Nc2ccccc2)c1)NO [BELINOSTAT] |  |  |  |  |  |  | 213 |  | IC50 [17]: 320 nM; selectivity ratio [25]: 3.7 |

Second part, led by results:

| IC50 [1] [nM] | IC50 [2] [nM] | IC50 [3] [nM] | IC50 [6] [nM] | IC50 [7] [nM] | IC50 at 72 h [8] [nM] | SMILES | IC50 [4] [nM] | IC50 [5] [nM] | further results |
| --- | --- | --- | --- | --- | --- | --- | --- | --- | --- |
|  |  | > 1000 |  | 400 | > 20000 | O=C(NO)c1ccc(CN(C2CC2)S(=O)(=O)c2cc(F)c(F)c(F)c2F)cc1 | 173 | 480 | half-life [9]: 41 min; IC50 at 72 h [10]: 1430 nM; AUC(0-inf) [11]: 1520 ng·h/mL; AUC/dose [12]: 79 ng·h/mL |
| > 1000 | > 1000 | 474 | > 1000 | 5660 | > 50000 | COc1cc(C(=O)NO)ccc1CN(C(C)C)S(=O)(=O)c1cc(F)c(F)c(F)c1F |  | 5750 |  |
| 16.2 | > 1000 | > 1000 | 899 | 7430 | > 50000 | CC(C)N(Cc1ccc(C(=O)NO)cc1)Cc1cc(F)c(F)c(F)c1F |  | 11400 | logP [13]: 4.07 |
| 49.9 | > 1000 | > 1000 | > 1000 | 2710 | > 50000 | O=C(NO)c1ccc(CN(C2CCCC2)S(=O)(=O)c2cc(F)c(F)c(F)c2F)cc1 | 356 | 3300 |  |
| 4.32 |  |  |  |  | > 20000 | CC(C)N(Cc1ccc(C(=O)NO)cc1)S(=O)(=O)c1c(F)c(F)c(F)c(F)c1F | 182 | 440 | IC50 at 72 h [18]: 2300 nM; half-life [9]: 22 min; Activity [19]: Active; IC50 at 72 h [20]: 3700 nM |
| 50.4 | > 1000 | > 1000 | > 1000 | 900 | > 25000 | O=C(NO)c1ccc2c(c1)CCN(S(=O)(=O)c1cc(F)c(F)c(F)c1F)C2 |  | 1540 |  |
|  |  |  |  |  | > 30000 | O=C(CCCCCCNC(=O)c1cnc(N(c2ccccc2)c2ccccc2Cl)nc1)NO [CITARINOSTAT] | 154 |  | Activity [21]: Active; Activity [22]: 24%; IC50 [17]: 5800 nM; IC50 at 72 h [10]: 4350 nM; Activity [23]: 8.31%; Activity [24]: Active; inhibition [19]: Active |
| 143 | > 1000 | 84.6 | > 1000 | 2500 | > 25000 | CC(C)N(Cc1ccc(CC(=O)NO)cc1)S(=O)(=O)c1cc(F)c(F)c(F)c1F |  | 2400 |  |
